# According to patent US20250296953A1, “3,4-THIAZOLO-STEROIDS AND METHODS OF MAKING AND USING THE SAME” (Arkansas State University - Jonesboro, priority 2018, published 2025):
# Read-outs that look alike come from different tables or passages of the source.
# Tests used:
# SR = test: NCI 60 five dose screen
# RPMI-8226 = test: NCI 60 five dose screen
# [1] = test system: 60 different human tumor cell lines; details: five dose
# SF-295 = test: NCI 60 one dose screen; assay type: cell-based, human; details: one dose; CNS Cancer; SF-295
# NCI-H522 (NSCLC) = test: NCI 60 one dose screen; assay type: cell-based, human; details: Non-small Cell Lung Cancer
# gliosarcoma (SF-539) = test: NCI 60 five dose screen
compound,measurement,setting,value
"C[C@]12CC[C@H]3[C@@H](CC=C4c5sc(-c6ccc(O)cc6)nc5CC[C@@]43C)[C@@H]1CC[C@@H]2O [III.5, (1S,2R,13R,14S,17S,18S)-7-(4-hydroxyphenyl)-2,18-dimethyl-8-thia-6-azapentacyclo[11.7.0.02,10.05,9.014,18]icosa-5(9),6,10-trien-17-ol]",GI50,"SR; Homo sapiens, SR",1.37 µM
same,CC50,"SR; Homo sapiens, SR, read-out: LC50",> 100 µM
same,TGI,"SR; SR (Leukemia), five dose",3.38E−5
same,CC50,"RPMI-8226; Homo sapiens, RPMI-8226, read-out: LC50",> 100 µM
same,TGI,"RPMI-8226; RPMI-8226 (Leukemia), five dose",2.50E−6
same,TGI,[1]; 786-0 (Renal Cancer),2.39E−6
same,TGI,[1]; A498 (Renal Cancer),2.13E−5
same,TGI,[1]; A549/ATCC (Non-small Cell Lung Cancer),>1.00E−4
same,TGI,[1]; ACHN (Renal Cancer),>1.00E−4
same,TGI,[1]; BT-549 (Breast Cancer),1.94E−5
same,TGI,[1]; CAKI-1 (Renal Cancer),>1.00E−4
same,TGI,[1]; CCRF-CEM (Leukemia),4.72E−5
same,TGI,[1]; COLO 205 (Colon Cancer),>1.00E−4
same,TGI,[1]; DU-145 (Prostate Cancer),>1.00E−4
same,TGI,[1]; EKVX (Non-small Cell Lung Cancer),>1.00E−4
same,TGI,[1]; HCC-2998 (Colon Cancer),>1.00E−4
same,TGI,[1]; HCT-15 (Colon Cancer),2.07E−5
same,TGI,[1]; HCT-116 (Colon Cancer),2.74E−5
same,TGI,[1]; HL-60(TB) (Leukemia),>1.00E−4
same,TGI,[1]; HOP-62 (Non-small Cell Lung Cancer),5.05E−5
same,TGI,[1]; HS 578T (Breast Cancer),6.01E−5
same,TGI,[1]; HT29 (Colon Cancer),2.04E−5
same,TGI,[1]; IGROV1 (Ovarian Cancer),>1.00E−4
same,TGI,[1]; K-562 (Leukemia),>1.00E−4
same,TGI,[1]; KM12 (Colon Cancer),>1.00E−4
same,TGI,[1]; LOX IMVI (Melanoma),1.46E−5
same,TGI,[1]; M14 (Melanoma),2.93E−5
same,TGI,[1]; MALME-3M (Melanoma),>1.00E−4
same,TGI,[1]; MCF7 (Breast Cancer),2.15E−5
same,TGI,[1]; MDA-MB-231/ATCC (Breast Cancer),3.29E−5
same,TGI,[1]; MDA-MB-435 (Melanoma),>1.00E−4
same,TGI,[1]; MDA-MB-468 (Breast Cancer),4.16E−5
same,TGI,[1]; MOLT-4 (Leukemia),>1.00E−4
same,TGI,[1]; NCI-H23 (Non-small Cell Lung Cancer),>1.00E−4
same,TGI,[1]; NCI-H226 (Non-small Cell Lung Cancer),>1.00E−4
same,TGI,[1]; NCI-H322M (Non-small Cell Lung Cancer),>1.00E−4
same,TGI,[1]; NCI-H460 (Non-small Cell Lung Cancer),>1.00E−4
same,TGI,[1]; NCI-H522 (Non-small Cell Lung Cancer),>1.00E−4
same,TGI,[1]; NCI/ADR-RES (Ovarian Cancer),>1.00E−4
same,TGI,[1]; OVCAR-3 (Ovarian Cancer),8.37E−5
same,TGI,[1]; OVCAR-4 (Ovarian Cancer),>1.00E−4
same,TGI,[1]; OVCAR-5 (Ovarian Cancer),>1.00E−4
same,TGI,[1]; OVCAR-8 (Ovarian Cancer),>1.00E−4
same,TGI,[1]; RXF 393 (Renal Cancer),1.31E−6
same,TGI,[1]; SF-268 (CNS Cancer),>1.00E−4
same,TGI,[1]; SK-MEL-2 (Melanoma),6.94E−5
same,TGI,[1]; SK-MEL-5 (Melanoma),1.31E−5
same,TGI,[1]; SK-MEL-28 (Melanoma),6.60E−5
same,TGI,[1]; SK-OV-3 (Ovarian Cancer),>1.00E−4
same,TGI,[1]; SN12C (Renal Cancer),>1.00E−4
same,TGI,[1]; SNB-19 (CNS Cancer),>1.00E−4
same,TGI,[1]; SNB-75 (CNS Cancer),2.57E−5
same,TGI,[1]; SW-620 (Colon Cancer),>1.00E−4
same,TGI,[1]; T-47D (Breast Cancer),>1.00E−4
same,TGI,[1]; TK-10 (Renal Cancer),>1.00E−4
same,TGI,[1]; U251 (CNS Cancer),6.73E−5
same,TGI,[1]; UACC-62 (Melanoma),7.64E−6
same,TGI,[1]; UACC-257 (Melanoma),>1.00E−4
same,TGI,[1]; UO-31 (Renal Cancer),2.04E−5
same,Growth Percent,SF-295,−36.24%
same,Growth Percent,NCI-H522 (NSCLC),41.21%
same,GI50,"gliosarcoma (SF-539); Homo sapiens, SF-539",0.454 µM
same,CC50,"gliosarcoma (SF-539); Homo sapiens, SF-539, read-out: LC50",91.7 µM
same,TGI,"gliosarcoma (SF-539); SF-539 (CNS Cancer), five dose",3.23E−6
